Experimental findings from US20050107289A1, “Anti-microbial peptides and compositions” (priority 2001, published 2005) are described below.

One data set is described as follows: in vivo. The following applies: for bioavailability / Vd / clearance / half-life: Balb/C, mouse, plasma; for bioavailability: intraperitoneal, 100 mg/kg; for Vd / clearance / half-life: iv; for Kel elimination rate constant: Mouse, IV injection. On the procedure: IV injection: Solution of peptide in 9% sucrose (1 mg/mL) was injected IV into the tail vein of Balb/C mice at a dose of 3.6 mg/kg. Then the blood was collected immediately from one group of mice (3 mice per group) by bleeding the tail, separately from each mouse (50-100 uL per mouse). Further collections of blood were done from other groups of mice at times 20, 40, 70, 90, 120, 180, and 260 min after injection. Plasma from each blood sample was separated immediately after collection by spinning down red blood cells over a period of 5 min at 4000 rev./min. The plasma was then diluted with an equal volume of saline and refrigerated until analysis.
IP injection: Solutions of peptide in 9% sucrose (8.1 mg/mL) were injected EP into Balb/C mice at a dose of 100 mg/kg. Blood was collected immediately from one group of mice (3 mice per group) by bleeding the tail, separately from each mouse (50-100 uL per mouse). Further collections of blood were done from other groups of mice at times 0.5, 1, 2, 4, 6, 10, 15 h after injection. Plasma from each blood sample was separated immediately after collection by spinning down red blood cells over a period of 5 min at 4000 rev./min. Plasma was then diluted with equal volume of saline and refrigerated until analysis.
Detection of cyclo[RRKWLWW]-HCl in plasma by HPLC: Diluted with saline plasma (50-100 uL) was added to an eluent A (0.1% HCl in 99% H2O/1% ACN (v/v)) (150-300 uL), vortexed, and partial precipitation was removed by centrifugation. The clear solution was injected into an HPLC and the peptide was detected at 280 nm, in the 8-10 min interval, using a gradient of eluent A (0.1% HCl in 99% H2O/1% ACN (v/v)) and eluent B (0.07% HCl in 10% H2O/90% ACN (v/v)) using a flow rate of 1.5 ml/min. The following gradient was used: 30 to 30% B (5 min), followed by 30 to 37% B (5 min), followed by 37 to 40% B (12.5 min).
IV injection: Solution of peptide in 9% sucrose (2 mg/mL) was injected IV into the tail vein of Balb/C mice at a dose of 5 mg/kg. Blood was then collected immediately from one group of mice (3 mice per group) by bleeding the tail, separately from each mouse (50-100 uL per mouse). Further collections of blood were done from other groups of mice at times 30, 60, 120, 230, and 300 min after injection. Plasma from each blood sample was separated immediately after collection by spinning down red blood cells over a period of 5 min at 4000 rev./min. Plasma was then diluted with an equal volume of saline and refrigerated until analysis.
IP injection: Solution of peptide in 9% sucrose (9.8 mg/mL) was injected IP into Balb/C mice at a dose of 100 mg/kg. Blood was then collected immediately from one group of mice (3 mice per group) by bleeding the tail, separately from each mouse (50-100 uL per mouse). Further collections of blood were done from other groups of mice at times 0.5, 1, 2, 4, 6, 10 h after injection. Plasma from each blood sample was separated immediately after collection by spinning down red blood cells over a period of 5 min at 4000 rev./min. Plasma was then diluted with an equal volume of saline and refrigerated until analysis.
Detection of c(KSKWLWW) HC in plasma by HPLC: Samples were diluted with saline plasma (50-100 uL), added to an equal volume of eluent A (0.1% TFA in 96.5% H2O/0.9% ACN/2.4% MeOH (v/v)), vortexed, and partial precipitation was removed by centrifugation. The clear solution was injected into HPLC and the peptide was detected at 280 nm, in the 18-20 min interval, using a gradient of eluent A (0.1% TFA in 96.5% H2O/0.9% ACN/2.4% MeOH (v/v)) and eluent B (0.05% TFA in 8% H2O/72% ACN/20% MeOH (v/v)) using a flow rate of 1.5 ml/min. The following gradient was used: 0 to 0% B (5 min), followed by 0 to 100% B (25 min).

In data set [1] the test system is S. aureus (MRSA) ATCC 33591. The class given is cell-based, Staphylococcus aureus. As to conditions: for In Vitro MRSA MIC / MRSA MIC / S. aureus (MRSA) MIC: ATCC 33591; for MRSA (in vitro activity): Table 9, media a: anti-microbial media-3 (AM-3). The procedure, abridged:
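MICs come from NCCLS-style (M7-A4) dilution testing, mostly microdilution, with an inoculum near 2.5×10^5 cfu/ml from 4000-fold-diluted overnight cultures. Peptide series were 2-fold steps spanning roughly 400–2 μg/ml, prepared in 9% aqueous sucrose with 5% DMSO.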

The bioavailability is the share of a dose that reaches the circulation, judged against a reference dose that is usually intravenous. As usually defined, the Vd is a proportionality between amount in the body and measured concentration, not a real space. Higher therefore signals extensive tissue distribution. One may read the clearance as the volume of plasma or blood freed of the substance per unit of time. A lower clearance goes with inefficient removal. One may read the half-life as the time in which the quantity being followed falls by half. The low end stands for rapid decline, the high end for slow decline.

Molecules are shown by their SMILES. Non-standard residues stand in square brackets, D forms with d. Residues, ends and D or L forms follow the SMILES beside them.

In the data set “in vivo”, `CC(C)C[C@H]1NC(=O)[C@H](Cc2c[nH]c3ccccc23)NC(=O)[C@@H](CCCCN)NC(=O)[C@H](CO)NC(=O)[C@@H](CCCCN)NC(=O)[C@H](Cc2c[nH]c3ccccc23)NC(=O)[C@@H](CC(C)C)NC(=O)[C@H](Cc2c[nH]c3ccccc23)NC1=O` [SEQ ID NO:12, D-Lys-Ser-D-Lys-Trp-D-Leu-Trp-D-Leu-Trp] (cyclo([dK]S[dK]W[dL]W[dL]W)) had a bioavailability of 32%, a volume of distribution (Vd) of 0.67 L/kg, a clearance of 0.3 mL/min and a half-life of 0.83 h. Moreover, the “Kel elimination rate constant” value in “in vivo” stood at 0.84 h⁻¹. In data set [1], the “In Vitro MRSA MIC” value is 5 µg/mL, the MRSA MIC came to 5 µg/mL, the “S. aureus (MRSA) MIC” value worked out at 5 µg/mL and the “MRSA (in vitro activity)” value worked out at 5.
In the data set “in vivo”, `CC(C)C[C@H]1NC(=O)[C@H](Cc2c[nH]c3ccccc23)NC(=O)[C@@H](CCCCN)NC(=O)[C@H](CCCNC(=N)N)NC(=O)[C@@H](CCCNC(=N)N)NC(=O)[C@H](Cc2c[nH]c3ccccc23)NC(=O)[C@@H](CC(C)C)NC(=O)[C@H](Cc2c[nH]c3ccccc23)NC1=O` [SEQ ID NO:18, cyclo-(D-Arg-Arg-D-Lys-Trp-D-Leu-Trp-D-Leu-Trp)] (cyclo([dR]R[dK]W[dL]W[dL]W)) had a bioavailability of 9%, a volume of distribution (Vd) of 0.58 L/kg, a clearance of 0.16 mL/min and a half-life of 1.2 h. Further, the “Kel elimination rate constant” value in the data set “in vivo” is 0.6 h⁻¹. In addition, in data set [1], the “In Vitro MRSA MIC” value worked out at 6 µg/mL, the MRSA MIC was 5 µg/mL, the “S. aureus (MRSA) MIC” value was determined as 6 µg/mL and the “MRSA (in vitro activity)” value was 5.
Turning to `CC(C)C[C@H]1NC(=O)[C@H](Cc2c[nH]c3ccccc23)NC(=O)[C@@H](CCCNC(=N)N)NC(=O)[C@H](CCC(N)=O)NC(=O)[C@@H](CCCCN)NC(=O)[C@H](Cc2c[nH]c3ccccc23)NC(=O)[C@@H](CC(C)C)NC(=O)[C@H](Cc2c[nH]c3ccccc23)NC1=O` [SEQ ID NO:8, cyclo-(D-Lys-Gln-D-Arg-Trp-D-Leu-Trp-D-Leu-Trp)] (cyclo([dK]Q[dR]W[dL]W[dL]W)), in data set [1], the “In Vitro MRSA MIC” value was 12 µg/mL and the “S. aureus (MRSA) MIC” value came out at 6 µg/mL.
